Experimental data as given in ChEMBL document CHEMBL3045486, “Potent, Selective Adenosine A1 Agonists as Potential Analgesics” (Med Chem Res, 2004).

Tests used:
[1] = biological target: T1, Adenosine receptor A1 (Homo sapiens) (UniProt P30542); assay: Agonist activity at Homo sapiens (human) adenosine A1 receptor expressed in CHO cells relative to NECA; assay type: cell-based
T1 sequence (whole entry): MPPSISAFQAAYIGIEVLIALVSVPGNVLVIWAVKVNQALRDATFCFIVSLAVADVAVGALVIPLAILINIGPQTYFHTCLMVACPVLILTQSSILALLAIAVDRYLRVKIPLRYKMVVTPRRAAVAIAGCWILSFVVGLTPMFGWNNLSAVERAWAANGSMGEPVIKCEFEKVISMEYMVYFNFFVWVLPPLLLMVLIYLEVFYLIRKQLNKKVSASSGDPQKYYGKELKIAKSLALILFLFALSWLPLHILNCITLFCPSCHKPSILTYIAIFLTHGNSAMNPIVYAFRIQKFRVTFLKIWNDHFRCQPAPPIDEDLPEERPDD

Adenosine receptor A2a [2] = biological target: T2, Adenosine receptor A2a (Homo sapiens, UniProt P29274); assay: Agonist activity at Homo sapiens (human) adenosine A2a receptor expressed in CHO cells relative to NECA; assay type: cell-based
T2 sequence (P29274 whole entry): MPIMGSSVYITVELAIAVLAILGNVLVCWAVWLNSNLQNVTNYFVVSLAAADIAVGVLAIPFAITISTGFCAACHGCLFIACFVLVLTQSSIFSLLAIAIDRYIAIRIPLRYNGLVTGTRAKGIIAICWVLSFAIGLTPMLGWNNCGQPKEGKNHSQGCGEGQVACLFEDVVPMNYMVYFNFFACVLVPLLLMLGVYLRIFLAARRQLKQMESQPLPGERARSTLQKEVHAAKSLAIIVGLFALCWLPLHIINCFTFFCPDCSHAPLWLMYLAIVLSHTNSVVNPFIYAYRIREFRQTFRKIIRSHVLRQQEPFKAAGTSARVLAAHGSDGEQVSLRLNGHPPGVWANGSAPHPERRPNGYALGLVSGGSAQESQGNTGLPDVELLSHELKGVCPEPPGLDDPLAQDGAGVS

Adenosine receptor A2b = biological target: T3, Adenosine receptor A2b (Homo sapiens, UniProt P29275); assay: Agonist activity at Homo sapiens (human) adenosine A2b receptor expressed in CHO cells; assay type: cell-based
T3 sequence (P29275 whole entry): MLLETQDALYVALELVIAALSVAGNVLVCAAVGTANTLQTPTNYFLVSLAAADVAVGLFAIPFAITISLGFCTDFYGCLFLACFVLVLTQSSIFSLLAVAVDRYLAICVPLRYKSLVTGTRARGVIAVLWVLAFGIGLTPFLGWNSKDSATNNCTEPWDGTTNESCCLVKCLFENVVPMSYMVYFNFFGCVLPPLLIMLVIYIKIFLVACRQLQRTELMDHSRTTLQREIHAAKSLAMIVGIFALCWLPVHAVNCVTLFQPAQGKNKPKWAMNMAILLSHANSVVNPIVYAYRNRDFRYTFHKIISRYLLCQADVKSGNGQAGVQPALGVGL

Adenosine receptor A2a [3] = biological target: T2, Adenosine receptor A2a; assay: Agonist activity at Homo sapiens (human) adenosine A2a receptor expressed in CHO cells; assay type: functional, cell-based
Adenosine receptor A3 = biological target: T4, Adenosine receptor A3 (Homo sapiens, UniProt P0DMS8); assay: Agonist activity at Homo sapiens (human) adenosine A3 receptor expressed in CHO cells; assay type: cell-based
T4 sequence (P0DMS8 whole entry): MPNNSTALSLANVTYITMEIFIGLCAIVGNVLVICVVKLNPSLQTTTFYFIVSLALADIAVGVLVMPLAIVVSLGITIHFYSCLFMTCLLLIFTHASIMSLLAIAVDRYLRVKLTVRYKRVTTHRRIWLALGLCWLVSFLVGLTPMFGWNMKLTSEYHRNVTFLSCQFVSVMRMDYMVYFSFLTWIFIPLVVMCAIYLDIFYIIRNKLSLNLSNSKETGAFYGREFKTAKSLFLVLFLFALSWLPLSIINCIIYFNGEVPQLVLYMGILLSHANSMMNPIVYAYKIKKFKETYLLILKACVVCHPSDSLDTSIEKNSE

[4] = biological target: T5, Adenosine receptor A2b (Homo sapiens) (UniProt P29275); assay: Agonist activity at Homo sapiens (human) adenosine A2b receptor expressed in CHO cells relative to NECA; assay type: cell-based
T5 sequence (whole entry): T3 sequence (P29275 whole entry)

[5] = biological target: T6, Adenosine receptor A3 (Homo sapiens) (UniProt P0DMS8); assay: Agonist activity at Homo sapiens (human) adenosine A3 receptor expressed in CHO cells relative to NECA; assay type: cell-based
T6 sequence (whole entry): T4 sequence (P0DMS8 whole entry)

Adenosine receptor A1 = biological target: T7, Adenosine receptor A1 (Homo sapiens, UniProt P30542); assay: Agonist activity at Homo sapiens (human) adenosine A1 receptor expressed in CHO cells; assay type: cell-based
T7 sequence (P30542 whole entry): T1 sequence (whole entry)

[6] = biological target: T1, Adenosine receptor A1 (Homo sapiens); assay: Intrinsic efficacy at Homo sapiens (human) adenosine A1 receptor expressed in CHO cells assessed as increase in intracellular calcium level by FLIPR assay relative to NECA; assay type: functional, cell-based

| Ratio [1] | Ratio (Adenosine receptor A2a [2]) | Ki (Adenosine receptor A2b) [µM] | Ki (Adenosine receptor A2a [3]) [µM] | Ki (Adenosine receptor A3) [µM] | Ratio [4] | Ratio [5] | Ki (Adenosine receptor A1) [µM] | Efficacy [6] [%] | SMILES |
| --- | --- | --- | --- | --- | --- | --- | --- | --- | --- |
| 2.4 | 212 | > 100 | 5.01 | 2.51 | > 273 | > 251 | 0.0251 | 84 | O[C@@H]1[C@H](O)[C@@H](CF)O[C@H]1n1cnc2c(NC3CCOCC3)ncnc21 |
| 1.9 | 445 | 31.6 | 25.1 | 2.51 | 195 | > 190 | 0.0158 | 106 | OC[C@H]1O[C@@H](n2cnc3c(N[C@H]4CCC[C@@H]4O)ncnc32)[C@H](O)[C@@H]1O [GR-79236] |
| 12 | 725 | – | > 100 | 3.16 | > 348 | > 364 | 0.251 | 12 | COC[C@H]1O[C@@H](n2cnc3c(Nc4ccc(O)c(F)c4)ncnc32)[C@H](O)[C@@H]1O [GR-190178] |
